A value given as a limit tells only on which side of the number the result lay.

The values below come from ChEMBL document CHEMBL3102765, “Unsymmetrical 1,5-diaryl-3-oxo-1,4-pentadienyls and their evaluation as antiparasitic agents” (Bioorg Med Chem, 2014).

The test system of data set [1] is Trypanosoma cruzi. In words: Antiparasitic activity against epimastigote form of Trypanosoma cruzi Y after 96 hrs by hemocytometry. The class given is functional, organism-based.
A short description of data set [2]: Cytotoxicity against mouse J774A1 cells after 48 hrs by MTT assay. The class given is cell-based, J774.A1. On the technique in general: Tetrazolium assays rely on reduction of a dye to a coloured formazan, in cell work by metabolically active cells.
Another data set relates to Leishmania amazonensis. Briefly: Antiparasitic activity against promastigote form of Leishmania amazonensis MHOM/BR/Josefa after 72 hrs by hemocytometry. The class given is functional, organism-based.
The nature of data set [3]: Cytotoxicity against monkey LLC-MK2 cells after 48 hrs by MTT assay. In kind it is cell-based, Macaca mulatta. The settings on record: rhesus monkey.
In data set [4] the test system is Trypanosoma cruzi. In words: Antiparasitic activity against trypomastigote form of Trypanosoma cruzi Y infected in LLCMK2 cells assessed as parasite lysis after 24 hrs by Pizzi-Brener method. The class given is functional, organism-based. The settings on record: LLC-MK2, 24 h.

As usually defined, the IC50 is the concentration that inhibits the measured activity by half. For orientation: CC50 means the concentration that lowers cell viability or growth by half. One may read the EC50 as the concentration giving half of the maximal effect. For the molecule `COc1ccc(/C=C/C(=O)/C(C)=C/c2ccc(N(C)C)cc2)cc1`, the IC50 in the data set with Trypanosoma cruzi [1] was > 100 µM; with Leishmania amazonensis, 20.1 µM. In addition, the CC50 at 48 h turned out to be 34.3 µM in data set [2] and 285 µM in data set [3]. Further, the EC50 with Trypanosoma cruzi [4] was > 100 µM.
As to `C/C(=C\c1ccc(N(C)C)cc1)C(=O)/C=C/c1ccc([N+](=O)[O-])cc1`, the IC50 in the data set on Trypanosoma cruzi [1] and in the data set on Leishmania amazonensis was > 100 µM each time. Besides, the CC50 at 48 h is 967 µM in data set [2] and 167 µM in data set [3]. For the same molecule, in the data set on Trypanosoma cruzi [4], the EC50 is > 100 µM.
As for `C/C(=C\c1ccc(N(C)C)cc1)C(=O)/C=C/c1ccc(N(C)C)cc1`, the IC50 in the data set on Trypanosoma cruzi [1] stood at 25.1 µM; in the data set on Leishmania amazonensis it was 20.5 µM. Also, the CC50 at 48 h in data set [2] turned out to be 10 µM; in data set [3], 314 µM. In addition, the EC50 in the data set on Trypanosoma cruzi [4] was > 100 µM.
For the molecule `CC(=O)/C(C)=C/c1ccccc1`, the IC50 in the data set with Trypanosoma cruzi [1] and in the data set on Leishmania amazonensis was > 100 µM throughout. The results for the CC50 at 48 h in data set [2] and in data set [3] were 742 µM and 688 µM, respectively. For the same molecule, the EC50 with Trypanosoma cruzi [4] was > 100 µM.
As to `COc1ccc(/C=C(\C)C(C)=O)cc1`, the IC50 with Trypanosoma cruzi [1] and in the data set with Leishmania amazonensis was > 100 µM each time. For the same molecule, the CC50 at 48 h in data set [2] came to 240 µM; in data set [3] it was 280 µM. Also, the EC50 with Trypanosoma cruzi [4] was > 100 µM.
In the case of `CC(=O)/C(C)=C/c1ccc([N+](=O)[O-])cc1`, the IC50 is 82.2 µM with Trypanosoma cruzi [1] and > 100 µM in the data set with Leishmania amazonensis. For the same molecule, the results for the CC50 at 48 h in data set [2] and in data set [3] were 70.5 µM and 266 µM, respectively. Moreover, the EC50 in the data set on Trypanosoma cruzi [4] was > 100 µM.
As for `CC(=O)/C(C)=C/c1ccc(N(C)C)cc1`, the IC50 in the data set with Trypanosoma cruzi [1] and in the data set on Leishmania amazonensis was > 100 µM each time. Moreover, the CC50 at 48 h was 160 µM in data set [2] and 150 µM in data set [3]. Also, the EC50 in the data set on Trypanosoma cruzi [4] is > 100 µM.
For `C/C(=C\c1ccccc1)C(=O)/C=C/c1ccccc1`, the IC50 in the data set with Trypanosoma cruzi [1] was determined as 15.9 µM; with Leishmania amazonensis it was 15.3 µM. Also, the 50% cytotoxic concentration (CC50) at 48 h came out at 34.5 µM in data set [2] and 33.6 µM in data set [3]. In addition, the EC50 in the data set on Trypanosoma cruzi [4] stood at 71.7 µM.
With `COc1ccc(/C=C/C(=O)/C(C)=C/c2ccccc2)cc1`, the figures for the IC50 with Trypanosoma cruzi [1] and in the data set with Leishmania amazonensis were 14.3 µM and 20.4 µM, respectively. The CC50 at 48 h in data set [2] came out at 51 µM; in data set [3], 93 µM. Also, in the data set on Trypanosoma cruzi [4], the EC50 was > 100 µM.
For `C/C(=C\c1ccccc1)C(=O)/C=C/c1ccc([N+](=O)[O-])cc1`, in that order: 16.9 µM, 11.6 µM, 26 µM, 43.3 µM and 65 µM.
For `C/C(=C\c1ccccc1)C(=O)/C=C/c1ccc(N(C)C)cc1`, the IC50 was determined as 13.3 µM with Trypanosoma cruzi [1] and 20 µM in the data set on Leishmania amazonensis. Further, the CC50 at 48 h was 20.2 µM in data set [2] and 53 µM in data set [3]. Besides, in the data set with Trypanosoma cruzi [4], the EC50 was > 100 µM.
As to `COc1ccc(/C=C(\C)C(=O)/C=C/c2ccccc2)cc1`, the IC50 worked out at 16.7 µM in the data set with Trypanosoma cruzi [1] and 22.3 µM with Leishmania amazonensis. Besides, the figures for the CC50 at 48 h in data set [2] and in data set [3] were 54 µM and 44 µM, respectively. Besides, the EC50 in the data set on Trypanosoma cruzi [4] is 73.3 µM.
For `COc1ccc(/C=C/C(=O)/C(C)=C/c2ccc(OC)cc2)cc1`, the IC50 is 23.6 µM in the data set on Trypanosoma cruzi [1] and 21.8 µM with Leishmania amazonensis. Moreover, the CC50 at 48 h in data set [2] worked out at 34.1 µM; in data set [3] it was 75 µM. For the same molecule, in the data set with Trypanosoma cruzi [4], the EC50 is > 100 µM.
Consider `COc1ccc(/C=C(\C)C(=O)/C=C/c2ccc([N+](=O)[O-])cc2)cc1`, for which the IC50 in the data set on Trypanosoma cruzi [1] was 25.2 µM; in the data set on Leishmania amazonensis, 14.8 µM. The figures for the CC50 at 48 h in data set [2] and in data set [3] were 30 µM and 20.1 µM, respectively. For the same molecule, in the data set on Trypanosoma cruzi [4], the EC50 was > 100 µM.
For `COc1ccc(/C=C(\C)C(=O)/C=C/c2ccc(N(C)C)cc2)cc1`, in that order: 21.3 µM, 18 µM, 36.2 µM, 411 µM and > 100 µM.
For `C/C(=C\c1ccc([N+](=O)[O-])cc1)C(=O)/C=C/c1ccccc1`, in that order: 3.5 µM, 13.4 µM, 47.3 µM, 264 µM and 17.5 µM.
Consider `COc1ccc(/C=C/C(=O)/C(C)=C/c2ccc([N+](=O)[O-])cc2)cc1`, for which the IC50 turned out to be 10 µM with Trypanosoma cruzi [1] and 15.5 µM with Leishmania amazonensis. Besides, the values for the CC50 at 48 h in data set [2] and in data set [3] were 36.6 µM and 172 µM, respectively. Further, in the data set on Trypanosoma cruzi [4], the EC50 came out at 73.3 µM.
For `C/C(=C\c1ccc([N+](=O)[O-])cc1)C(=O)/C=C/c1ccc([N+](=O)[O-])cc1` the same measures were 1.8 µM, 3.4 µM, 43 µM, 32.5 µM and 15.4 µM.
As to `C/C(=C\c1ccc([N+](=O)[O-])cc1)C(=O)/C=C/c1ccc(N(C)C)cc1`, the values for the IC50 with Trypanosoma cruzi [1] and in the data set on Leishmania amazonensis were 14 µM and 12 µM, respectively. The CC50 at 48 h in data set [2] turned out to be 24.7 µM; in data set [3], 25.9 µM. In addition, the EC50 in the data set with Trypanosoma cruzi [4] was > 100 µM.
On to `C/C(=C\c1ccc(N(C)C)cc1)C(=O)/C=C/c1ccccc1`, for which the values for the IC50 in the data set with Trypanosoma cruzi [1] and in the data set with Leishmania amazonensis were 24.1 µM and 21.5 µM, respectively. Moreover, the CC50 at 48 h in data set [2] was 28.5 µM; in data set [3], 191 µM. Moreover, the EC50 with Trypanosoma cruzi [4] came to 78.3 µM.
In the data set on Leishmania amazonensis, `C[C@@H]1[C@H](O)[C@@H](C)/C=C/C=C/C=C/C=C/C=C/C=C/C=C/[C@H](O[C@@H]2O[C@H](C)[C@@H](O)[C@H](N)[C@@H]2O)C[C@@H]2O[C@](O)(C[C@@H](O)C[C@@H](O)[C@H](O)CC[C@@H](O)C[C@@H](O)CC(=O)O[C@H]1C)C[C@H](O)[C@H]2C(=O)O` [AMPHOTERICIN B] registered an IC50 of 0.06 µM.
In turn, `O=C(Cn1ccnc1[N+](=O)[O-])NCc1ccccc1` [BENZNIDAZOLE] displayed a cytotoxic concentration (CC50) at 48 h in data set [3] of 615 µM.
